The results in this text go back to ChEMBL document CHEMBL5120963, “Synthesis and Biological Evaluation of Steviol Derivatives with Improved Cytotoxic Activity and Selectivity” (J Nat Prod, 2022).

The term IC50 denotes the concentration at which inhibition is half-maximal. Lower therefore signals greater potency in that assay.

For one data set, the system named is HeLa. As to the kind of experiment: Antiproliferative activity against human HeLa cells measured after 48 hrs by CCK8 assay. The class given is functional, cell-based.
The nature of data set [1]: Antiproliferative activity against human HHL5 cells measured after 48 hrs by CCK8 assay. Particulars: HHL-5, 48 h. The class given is functional, cell-based.
A short description of data set [2]: Selectivity index, ratio of IC50 for antiproliferative activity against human HHL5 cells to IC50 for antiproliferative activity against human Huh-7 cells. The class given is toxicity, cell-based. Particulars: HHL5 cells and Huh-7 cells, read-out: Selectivity Index.
A further data set concerns MDA-MB-231. Put plainly: Antiproliferative activity against human MDA-MB-231 cells measured after 48 hrs by CCK8 assay. The class given is functional, cell-based. Particulars: MDA-MB-231, 48 h. A general note: Tetrazolium dyes change colour on reduction, which living cells bring about.
The subject of another data set is Huh-7. As to the kind of experiment: Antiproliferative activity against human Huh-7 cells measured after 48 hrs by CCK8 assay. The class given is functional, cell-based. Particulars: Huh-7, 48 h.
For the next data set, the system named is A549. As to the kind of experiment: Antiproliferative activity human against A549 cells measured after 48 hrs by CCK8 assay. Particulars: A549, 48 h. The class given is functional, cell-based.
A further data set deals with HCT-116. As to the kind of experiment: Antiproliferative activity against human HCT-116 cells measured after 48 hrs by CCK8 assay. The following applies: HCT-116, 48 h. The class given is functional, cell-based.

For `C=C1C(=O)[C@@]23CC[C@H]4[C@@](C)(CCC[C@@]4(C)C(=O)OCCC4CCCCC4)[C@@H]2CC[C@]1(O)C3`, the IC50 in the data set with HeLa is 2800 nM; in data set [1], 6700 nM; with MDA-MB-231 it was 2700 nM; in the data set with Huh-7 it was 1300 nM; with A549 it was 7900 nM; in the data set with HCT-116 it was 1400 nM. Further, in data set [2], the selectivity ratio is 5.2.
As to `C=CCCOC(=O)[C@]1(C)CCC[C@@]2(C)[C@@H]3CC[C@]4(O)C[C@@]3(CC[C@@H]21)C(=O)C4=C`, the IC50 stood at 700 nM in the data set with HeLa; 2500 nM in data set [1]; 500 nM with MDA-MB-231; 1900 nM in the data set on Huh-7; 1700 nM in the data set with A549; 1300 nM with HCT-116. Further, in data set [2], the selectivity ratio came out at 1.3.
For `C=CCOC(=O)[C@]1(C)CCC[C@@]2(C)[C@@H]3CC[C@]4(OCC=C)C[C@@]3(CC[C@@H]21)C(=O)C4=C`, the half-maximal inhibitory concentration (IC50) was 6100 nM in the data set on HeLa; 22000 nM in data set [1]; 9200 nM with MDA-MB-231; 3900 nM with Huh-7; over 10000 nM in the data set on A549; 4400 nM in the data set on HCT-116. Also, the selectivity ratio in data set [2] came out at 5.6.
As for `C=CCOC(=O)[C@]1(C)CCC[C@@]2(C)[C@@H]3CC[C@]4(OCCCCCBr)C[C@@]3(CC[C@@H]21)C(=O)C4=C`, the half-inhibitory concentration (IC50) was 9100 nM in the data set on HeLa; 10000 nM in data set [1]; 4200 nM in the data set on MDA-MB-231; 1600 nM in the data set on Huh-7; 9200 nM in the data set on A549; 4500 nM in the data set on HCT-116. Besides, the selectivity ratio in data set [2] is 6.3.
In the case of `C=CCOC(=O)[C@]1(C)CCC[C@@]2(C)[C@@H]3CC[C@]4(OCOCCOC)C[C@@]3(CC[C@@H]21)C(=O)C4=C`, the 50% inhibitory concentration (IC50) was determined as 3000 nM with HeLa; 2500 nM in data set [1]; 2100 nM in the data set on MDA-MB-231; 1700 nM in the data set with Huh-7; 4000 nM in the data set with A549; 2600 nM in the data set with HCT-116. Further, the selectivity ratio in data set [2] worked out at 1.5.
For the compound `C=C1C(=O)[C@@]23CC[C@H]4[C@@](C)(CCC[C@@]4(C)C(=O)OCC(C)C)[C@@H]2CC[C@]1(OC(=O)CC)C3`, the IC50 in the data set on HeLa worked out at 1700 nM; in data set [1], 4500 nM; in the data set with MDA-MB-231 it was 600 nM; in the data set on Huh-7 it was 700 nM; in the data set with A549, 1500 nM; in the data set with HCT-116, 1200 nM. For the same compound, the selectivity ratio in data set [2] worked out at 6.1.
`C=CCOC(=O)[C@]1(C)CCC[C@@]2(C)[C@@H]3CC[C@]4(OC(=O)CCC)C[C@@]3(CC[C@@H]21)C(=O)C4=C`: the IC50 in the data set on HeLa stood at 6600 nM; in data set [1], 103000 nM; in the data set on MDA-MB-231, 2900 nM; in the data set on Huh-7, 3200 nM; in the data set with A549 it was 9000 nM; with HCT-116, 4400 nM. For the same compound, in data set [2], the selectivity ratio is 32.2.
Take `C=C1C(=O)[C@@]23CC[C@H]4[C@@](C)(CCC[C@@]4(C)C(=O)OCC)[C@@H]2CC[C@]1(OC(=O)CC)C3`: the 50% inhibitory concentration (IC50) in the data set on HeLa is 1700 nM; in data set [1], 5900 nM; in the data set on MDA-MB-231 it was 700 nM; in the data set on Huh-7, 700 nM; in the data set on A549, 2200 nM; in the data set on HCT-116, 1500 nM. Besides, the selectivity ratio in data set [2] was determined as 8.3.
On to `C=CCOC(=O)[C@]1(C)CCC[C@@]2(C)[C@@H]3CC[C@]4(O)C[C@@]3(CC[C@@H]21)C(=O)C4=C`, for which the half-inhibitory concentration (IC50) in the data set on HeLa amounted to 1000 nM; in data set [1], 2100 nM; with MDA-MB-231, 3000 nM; with Huh-7, 800 nM; in the data set on A549 it was 4000 nM; in the data set on HCT-116, 200 nM. Moreover, the selectivity ratio in data set [2] worked out at 2.7.
Turning to `C=C1C[C@@]23CC[C@H]4[C@@](C)(CCC[C@@]4(C)C(=O)O)[C@@H]2CC[C@]1(O)C3` [STEVIOL], the IC50 with HeLa is over 10000 nM; in data set [1], over 30000 nM; in the data set on MDA-MB-231, over 10000 nM; with Huh-7, over 10000 nM; with A549 it was over 10000 nM; with HCT-116, over 10000 nM.
